Test system: peripheral blood mononuclear cells (PBMC)
Assay: Cytokine and immune-function gene expression of PBMC in vitro (qRT-PCR, 41 immune-related genes)
Format: cell-based, human
Conditions: Group A
Procedure: After a screening visit at which blood was drawn to test for IgG antibody against HSV-1 and subjects were interviewed for inclusion/exclusion criteria, selected subjects returned for blood draws on day 1. After the blood draw on day 1, subjects in group A only were dosed with SADBE. A petrolatum donut was applied with a cotton swab to form about a 1 cm diameter donut on skin on the inner aspect of the upper arm. Then a separate cotton swab was dipped in a 2% SADBE solution (w/v) in DMSO, and the swab was then used to apply about 10-20 mg of solution over about a 1 cm diameter circle within the petrolatum donut. Immediately after application, the application site was covered with TEGADERM. Subjects were advised to remove the TEGADERM and rinse and wipe the spot three hours later. The group A subjects then returned for blood draws on days 15 and 57 and were queried about adverse events on those dates.
PBMC were isolated using SepMate PBMC isolation tubes (Stem Cell Technologies, Vancouver, Canada) and Ficoll-Paque according to the manufacturer's instructions. PBMC were isolated and suspended in negative control medium at 2 million cells/ml. PBMC suspension (100 μL) was added to 100 μL of medium in quadruplicate in 96-well plates. The plates were prepared in advance and stored at −70° C. The wells were in five different conditions in quadruplicate with these final concentrations after addition of the 100 μL of PBMC suspension in negative control medium. • 1. Negative control in medium (RPMI with glutamine and pen/strep, supplemented with 10% human A/B serum). • 2. Medium plus 16 μg/ml protein from heat-inactivated HSV-1-infected Vero cell extracts. • 3. Medium plus heat-inactivated HSV-1 cell-free virus at a final 7.5 million pfu/ml. • 4. Medium plus Candida cell extract. (Greer item number M15A50, 20,000 pnu/ml allergenic extract mixed molds Candida albicans, was diluted 1/50 into medium). • 5. Positive control, medium plus 10 μg/ml concanavalin A.
Two plates were created for each subject at each collection point. One plate was incubated for 2 days at 37° C. in a humidified 5% CO2 atmosphere and then RNA was isolated from the pooled contents of the 4 wells of a given condition for a specific patient, and the RNA was stored at −70° C. and subsequently used for quantitative real time PCR analysis of gene expression of 41 immune-related genes.
As noted above, after 2 days of growth of the PBMC in a 37° C. humidified 5% CO2 incubator in a 96-well plate, four wells of a single condition (negative control, positive control, heat-inactivated HSV-1, HSV-1-infected cell extracts, or Candida extract) with cells from a single subject (200 μL in each well) were pooled, and the RNA was immediately isolated with Trizol reagent and chloroform by Qiagen RNeasy MiniElute clean up kit Qiagen cat #74204, according to manufacturer's instructions into a final volume of 13 μL, and then flash frozen on powdered dry ice, and stored at −70° C. in aliquots of 3 μL for RNA quantification and 10 μL for PCR analysis.
RNA was preamplified with the Qiagen RT2 PreAMP cDNA synthesis kit (Ref. 330451) and custom RT2 PreAmp primer mix (Ref. 330141) starting with about 50 ng RNA according to the procedure of RT preamp cDNA synthesis handbook date March 2011, pages 17-20. The amplification reactions (final 120 μL) were frozen at −70° C. and used for qPCR analysis the next day.
qPCR was done with the Qiagen RT PCR profiler gene analysis kit (catalog number 330451) using RT2 Sybr Green Rox qPCR Mastermix (24) (Part 330523) and Custom RT2 PCR array plates (Ref. 330171). For this 675 μL 2×RT2 SYBR green mastermix, 51 μL pre-AMP synthesis reaction, and 623 μL RNase free water were mixed, and then 25 μL of the mixture was added to 48 wells on the left or right half of the custom PCR plate. The PCR instrument was Applied Biosystems 7900HT fast real time PCR. […]

CCCCOc1c(OCCCC)c(=O)c1=O [SADBE, 3,4-Dibutoxy-3-cyclobutene-1,2-dione]
IFNB1 ratio of PBMC absolute gene expression day 57/day 1 (HSV-infected cell extracts): 0.65
IFNG ratio of PBMC absolute gene expression day 15/day 1 (HSV-infected cell extracts): 1.26
IFNG ratio of PBMC absolute gene expression day 57/day 1 (HSV-infected cell extracts): 5.72
IL1B ratio of PBMC absolute gene expression day 15/day 1 (HSV-infected cell extracts): 1.48
IL1B ratio of PBMC absolute gene expression day 57/day 1 (HSV-infected cell extracts): 21.45
IL1R1 ratio of PBMC absolute gene expression day 15/day 1 (HSV-infected cell extracts): 0.89
IL1R1 ratio of PBMC absolute gene expression day 57/day 1 (HSV-infected cell extracts): 1.11
IL1RN ratio of PBMC absolute gene expression day 15/day 1 (HSV-infected cell extracts): 0.94
IL1RN ratio of PBMC absolute gene expression day 57/day 1 (HSV-infected cell extracts): 0.79
IL2 ratio of PBMC absolute gene expression day 15/day 1 (HSV-infected cell extracts): 0.98
IL2 ratio of PBMC absolute gene expression day 57/day 1 (HSV-infected cell extracts): 2.48
IL4 ratio of PBMC absolute gene expression day 15/day 1 (HSV-infected cell extracts): 0.77
IL4 ratio of PBMC absolute gene expression day 57/day 1 (HSV-infected cell extracts): 0.89
IL5 ratio of PBMC absolute gene expression day 15/day 1 (HSV-infected cell extracts): 0.83
IL5 ratio of PBMC absolute gene expression day 57/day 1 (HSV-infected cell extracts): 0.50
IL8 ratio of PBMC absolute gene expression day 15/day 1 (HSV-infected cell extracts): 0.99
IL8 ratio of PBMC absolute gene expression day 57/day 1 (HSV-infected cell extracts): 3.86
IL10 ratio of PBMC absolute gene expression day 15/day 1 (HSV-infected cell extracts): 1.19
IL10 ratio of PBMC absolute gene expression day 57/day 1 (HSV-infected cell extracts): 3.29
IL12A ratio of PBMC absolute gene expression day 15/day 1 (HSV-infected cell extracts): 0.90
IL12A ratio of PBMC absolute gene expression day 57/day 1 (HSV-infected cell extracts): 0.89
IL12B ratio of PBMC absolute gene expression day 15/day 1 (HSV-infected cell extracts): 0.80
IL12B ratio of PBMC absolute gene expression day 57/day 1 (HSV-infected cell extracts): 0.23
IL13 ratio of PBMC absolute gene expression day 15/day 1 (HSV-infected cell extracts): 1.01
IL13 ratio of PBMC absolute gene expression day 57/day 1 (HSV-infected cell extracts): 2.28
IL15 ratio of PBMC absolute gene expression day 15/day 1 (HSV-infected cell extracts): 0.93
IL15 ratio of PBMC absolute gene expression day 57/day 1 (HSV-infected cell extracts): 0.87
IL16 ratio of PBMC absolute gene expression day 15/day 1 (HSV-infected cell extracts): 1.03
IL16 ratio of PBMC absolute gene expression day 57/day 1 (HSV-infected cell extracts): 1.02
JAK2 ratio of PBMC absolute gene expression day 15/day 1 (HSV-infected cell extracts): 0.86
JAK2 ratio of PBMC absolute gene expression day 57/day 1 (HSV-infected cell extracts): 0.82
LTA ratio of PBMC absolute gene expression day 15/day 1 (HSV-infected cell extracts): 1.03
LTA ratio of PBMC absolute gene expression day 57/day 1 (HSV-infected cell extracts): 0.99
LYZ ratio of PBMC absolute gene expression day 15/day 1 (HSV-infected cell extracts): 0.73
LYZ ratio of PBMC absolute gene expression day 57/day 1 (HSV-infected cell extracts): 0.29
MX1 ratio of PBMC absolute gene expression day 15/day 1 (HSV-infected cell extracts): 0.89
MX1 ratio of PBMC absolute gene expression day 57/day 1 (HSV-infected cell extracts): 0.66
NOD1 ratio of PBMC absolute gene expression day 15/day 1 (HSV-infected cell extracts): 1.04
NOD1 ratio of PBMC absolute gene expression day 57/day 1 (HSV-infected cell extracts): 0.89
SPP1 ratio of PBMC absolute gene expression day 15/day 1 (HSV-infected cell extracts): 2.09
SPP1 ratio of PBMC absolute gene expression day 57/day 1 (HSV-infected cell extracts): 5.38
STAT1 ratio of PBMC absolute gene expression day 15/day 1 (HSV-infected cell extracts): 0.90
STAT1 ratio of PBMC absolute gene expression day 57/day 1 (HSV-infected cell extracts): 0.91
STAT4 ratio of PBMC absolute gene expression day 15/day 1 (HSV-infected cell extracts): 0.89
STAT4 ratio of PBMC absolute gene expression day 57/day 1 (HSV-infected cell extracts): 1.01
TNF ratio of PBMC absolute gene expression day 15/day 1 (HSV-infected cell extracts): 1.17
TNF ratio of PBMC absolute gene expression day 57/day 1 (HSV-infected cell extracts): 1.2
TNFSF10 ratio of PBMC absolute gene expression day 15/day 1 (HSV-infected cell extracts): 0.84
TNFSF10 ratio of PBMC absolute gene expression day 57/day 1 (HSV-infected cell extracts): 0.88
TNFSF13B ratio of PBMC absolute gene expression day 15/day 1 (HSV-infected cell extracts): 0.93
TNFSF13B ratio of PBMC absolute gene expression day 57/day 1 (HSV-infected cell extracts): 1.07
CCL2 ratio of PBMC absolute gene expression day 15/day 1 (Neg. control): 0.35
CCL2 ratio of PBMC absolute gene expression day 57/day 1 (Neg. control): 1.15
CCL3 ratio of PBMC absolute gene expression day 15/day 1 (Neg. control): 0.47
CCL3 ratio of PBMC absolute gene expression day 57/day 1 (Neg. control): 1.79
CCL7 ratio of PBMC absolute gene expression day 15/day 1 (Neg. control): 0.25
CCL7 ratio of PBMC absolute gene expression day 57/day 1 (Neg. control): 1.35
CCR5 ratio of PBMC absolute gene expression day 15/day 1 (Neg. control): 1.00
CCR5 ratio of PBMC absolute gene expression day 57/day 1 (Neg. control): 1.19
CD80 ratio of PBMC absolute gene expression day 15/day 1 (Neg. control): 0.66
CD80 ratio of PBMC absolute gene expression day 57/day 1 (Neg. control): 1.16
CXCL2 ratio of PBMC absolute gene expression day 15/day 1 (Neg. control): 0.51
CXCL2 ratio of PBMC absolute gene expression day 57/day 1 (Neg. control): 1.33
CXCL5 ratio of PBMC absolute gene expression day 15/day 1 (Neg. control): 0.36
CXCL5 ratio of PBMC absolute gene expression day 57/day 1 (Neg. control): 1.78
CXCL9 ratio of PBMC absolute gene expression day 15/day 1 (Neg. control): 2.50
CXCL9 ratio of PBMC absolute gene expression day 57/day 1 (Neg. control): 4.93
CXCL10 ratio of PBMC absolute gene expression day 15/day 1 (Neg. control): 0.94
CXCL10 ratio of PBMC absolute gene expression day 57/day 1 (Neg. control): 0.68
CXCL11 ratio of PBMC absolute gene expression day 15/day 1 (Neg. control): 0.62
CXCL11 ratio of PBMC absolute gene expression day 57/day 1 (Neg. control): 0.83
DDX58 ratio of PBMC absolute gene expression day 15/day 1 (Neg. control): 0.82
DDX58 ratio of PBMC absolute gene expression day 57/day 1 (Neg. control): 0.83
FOXP3 ratio of PBMC absolute gene expression day 15/day 1 (Neg. control): 0.95
FOXP3 ratio of PBMC absolute gene expression day 57/day 1 (Neg. control): 1.07
GATA3 ratio of PBMC absolute gene expression day 15/day 1 (Neg. control): 1.06
GATA3 ratio of PBMC absolute gene expression day 57/day 1 (Neg. control): 0.84
ICAM1 ratio of PBMC absolute gene expression day 15/day 1 (Neg. control): 1.10
ICAM1 ratio of PBMC absolute gene expression day 57/day 1 (Neg. control): 1.34
IFNA1 ratio of PBMC absolute gene expression day 15/day 1 (Neg. control): 1.20
IFNA1 ratio of PBMC absolute gene expression day 57/day 1 (Neg. control): 1.47
IFNB1 ratio of PBMC absolute gene expression day 15/day 1 (Neg. control): 0.99
IFNB1 ratio of PBMC absolute gene expression day 57/day 1 (Neg. control): 0.73
IFNG ratio of PBMC absolute gene expression day 15/day 1 (Neg. control): 1.05
IFNG ratio of PBMC absolute gene expression day 57/day 1 (Neg. control): 1.24
IL1B ratio of PBMC absolute gene expression day 15/day 1 (Neg. control): 0.16
IL1B ratio of PBMC absolute gene expression day 57/day 1 (Neg. control): 2.09
IL1R1 ratio of PBMC absolute gene expression day 15/day 1 (Neg. control): 1.00
IL1R1 ratio of PBMC absolute gene expression day 57/day 1 (Neg. control): 0.6
IL1RN ratio of PBMC absolute gene expression day 15/day 1 (Neg. control): 0.90
IL1RN ratio of PBMC absolute gene expression day 57/day 1 (Neg. control): 1.35
IL2 ratio of PBMC absolute gene expression day 15/day 1 (Neg. control): 0.80
IL2 ratio of PBMC absolute gene expression day 57/day 1 (Neg. control): 1.21
IL4 ratio of PBMC absolute gene expression day 15/day 1 (Neg. control): 0.86
IL4 ratio of PBMC absolute gene expression day 57/day 1 (Neg. control): 0.98
IL5 ratio of PBMC absolute gene expression day 15/day 1 (Neg. control): 0.99
IL5 ratio of PBMC absolute gene expression day 57/day 1 (Neg. control): 0.39
IL8 ratio of PBMC absolute gene expression day 15/day 1 (Neg. control): 0.62
IL8 ratio of PBMC absolute gene expression day 57/day 1 (Neg. control): 2.38
IL10 ratio of PBMC absolute gene expression day 15/day 1 (Neg. control): 0.90
IL10 ratio of PBMC absolute gene expression day 57/day 1 (Neg. control): 1.04
IL12A ratio of PBMC absolute gene expression day 15/day 1 (Neg. control): 0.84
IL12A ratio of PBMC absolute gene expression day 57/day 1 (Neg. control): 0.98
IL12B ratio of PBMC absolute gene expression day 15/day 1 (Neg. control): 0.40
IL12B ratio of PBMC absolute gene expression day 57/day 1 (Neg. control): 1.38
IL13 ratio of PBMC absolute gene expression day 15/day 1 (Neg. control): 0.88
IL13 ratio of PBMC absolute gene expression day 57/day 1 (Neg. control): 1.69
IL15 ratio of PBMC absolute gene expression day 15/day 1 (Neg. control): 0.95
IL15 ratio of PBMC absolute gene expression day 57/day 1 (Neg. control): 1.13
IL16 ratio of PBMC absolute gene expression day 15/day 1 (Neg. control): 1.06
IL16 ratio of PBMC absolute gene expression day 57/day 1 (Neg. control): 0.89
JAK2 ratio of PBMC absolute gene expression day 15/day 1 (Neg. control): 0.91
JAK2 ratio of PBMC absolute gene expression day 57/day 1 (Neg. control): 0.93
LTA ratio of PBMC absolute gene expression day 15/day 1 (Neg. control): 0.94
